Source: patent publication US10278931B2, “Composition for treatment of inflammatory bowel disease and atopic dermatitis” (INNOPHARMASCREEN INC., priority 2015, dated 2019)

Assays:
[1] = test system: TSLP secretion from human mast cells (HMC-1 cells); test: TSLP secretion ELISA in PMACI-stimulated mast cells; assay type: cell-based
Description: (§1) (1) Cell culture: A human mast cell line (HMC-1) was cultured in an IMDM supplemented with 10% FBS at 37° C. and 5% CO2. Candidate materials were dissolved in DMSO, and then filtered using a 0.22 μm filter. The resulting candidate materials were diluted with DMSO and the HMC-1 cells were treated therewith.
(3) Enzyme-linked immunosorbent assay (ELISA): Mast cells (3×10^6 cells/ml) were stabilized for 1 hour, and then treated with 0.1 μM, 1 μM, and 10 μM of candidate materials, followed by treatment with PMACI for 8 hours. The mast cells were centrifuged to obtain supernatants. To measure the amount of TSLP secreted from the cells, ELISA was used. The ELISA was performed in 96-well plates coated with 1 μg/well of TSLP capture Ab. The coated plates were washed twice with PBS. The cells were treated with PBS containing 10% FBS for 2 hours. Thereafter, the cells were washed with PBS containing 0.05% Tween-20 (Sigma), and recombinant TSLP was used to draw a standard curve. Subsequently, the plates were exposed to a biotinylated-TSLP antibody, Avidin peroxidase, an ARTS substrate containing 30% H2O2, and then measured at 405 nm.

[2] = test system: IL-6, IL-22, IL-33 cytokine proteins; test: Cytokine & chemokine antibody microarray protein chip of DNCB skin tissue; assay type: in vivo, balb/c mice; details: 1% DNCB and 1 μM vs DNCB only; within threshold 1±0.1
Text: A. Preparation of tissue samples: The mouse skin tissue was frozen in liquid nitrogen and then finely ground in a mortar. Liquid nitrogen was intermittently added to prevent the tissue from being thawed. The finely ground skin tissue was placed in lysis M buffer to prepare a tissue sample lysate.
B. Fluorescent labeling of tissue lysates: Proteins were extracted from each of the tissue lysate treated with the sample for a certain period of time and an untreated tissue lysate (Lysis M extraction solution, Roche) and labeled with a fluorescent material (Cy3 or Cy5) (GE Healthcare). First, the amount of protein from each tissue lysate was adjusted to be at least 1 mg, and then coupling buffer (0.1M sodium carbonate buffer, pH 9.3) was added and mixed well. Cy3 and Cy5 dyes were added to each tissue lysate to which the coupling buffer had been added and mixed well for labeling at 4° C. for 16 hours. A control treated only with DNCB was labeled with Cy3 and Cy5, and the experimental groups treated with the sample were also labeled with Cy3 and Cy5. After labeling with the fluorescent dyes, free dyes were removed using a Post-reactive Spin column (Sigma).
C. Fabrication of antibody microarrays: ProteoChip™ (Proteogen, Inc., Seoul, Korea) was used as a protein chip, and antibody microarrays were fabricated by spotting antibodies against 26 proteins in cells on a substrate immobilized with 200 μg/ml of protein A on the ProteoChip™. First, the antibodies were diluted to 100 μg/ml with phosphate buffer containing 30% glycerol and the antibody arrays were fixed overnight at 4° C. […]
D. Hybridization of antibody arrays: Tissue lysates labeled with fluorescent materials were quantified (Bradford method), and 30 μg of each fluorescently labeled samples were mixed in 10 ml of a reaction solution. […] Each slide was analyzed using a fluorescent microarray scanner. […] The ratio of Cy5 to Cy3 in each spot was calculated using a software (Genepix 6.0). The INR values were calculated by sample-Cy5/control-Cy3×sample-Cy3/control-Cy5. […]

caspase-1 = target: T1, caspase-1 (Homo sapiens, UniProt P29466); test: Caspase-1 assay using HMC-1 cell extracts; assay type: cell-based
T1 construct: a caspase-1 assay was conducted using cell extracts; endogenous in cells; host or cells: HMC-1 (human mast cells)
T1 sequence (P29466 120-297 limits assumed): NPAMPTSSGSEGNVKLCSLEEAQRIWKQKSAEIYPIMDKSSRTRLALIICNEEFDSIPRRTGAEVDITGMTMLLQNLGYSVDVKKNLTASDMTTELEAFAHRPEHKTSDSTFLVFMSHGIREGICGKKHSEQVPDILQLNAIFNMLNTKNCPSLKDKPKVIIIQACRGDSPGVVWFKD
T1 sequence (P29466 317-404 limits assumed): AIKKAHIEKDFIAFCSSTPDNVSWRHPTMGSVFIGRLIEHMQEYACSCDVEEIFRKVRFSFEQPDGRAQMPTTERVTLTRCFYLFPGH

[3] = target: T2, human recombinant caspase-1 (Homo sapiens, UniProt P29466); test: Recombinant caspase-1 activity assay (kit); assay type: biochemical; details: caspase-1 assay kit
T2 sequence (P29466 120-404): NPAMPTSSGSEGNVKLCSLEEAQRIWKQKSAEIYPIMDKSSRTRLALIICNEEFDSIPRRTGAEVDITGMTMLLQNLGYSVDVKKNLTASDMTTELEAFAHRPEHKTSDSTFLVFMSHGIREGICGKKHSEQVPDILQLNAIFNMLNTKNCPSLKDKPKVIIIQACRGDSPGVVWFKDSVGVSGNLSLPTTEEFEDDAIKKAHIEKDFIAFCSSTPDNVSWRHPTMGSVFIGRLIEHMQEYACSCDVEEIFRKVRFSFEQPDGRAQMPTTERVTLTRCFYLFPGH
Description: (4) Caspase-1 assay: Recombinant caspase-1 and a drug were allowed to react, and then activity measurement was performed using a caspase-1 assay kit (R&D Systems Inc., Minneapolis, Minn., USA).
Recombinant caspase-1 and a drug were allowed to react, and then activity was measured using a caspase-1 assay kit (R&D Systems Inc., Minneapolis, Minn., USA).

inflammatory cytokines = test: Inflammatory cytokine production and mRNA expression in HMC-1 cells; assay type: cell-based, human
Description: as §1
(5) Reverse transcription-polymerase chain reaction (RT-PCR) quantitative real time PCR: Total RNA was isolated from cells and tissues, and cDNA was synthesized using a reverse transcriptase and was then reacted with cytokine primers to be analyzed, followed by PCR and real-time PCR. The RT-PCR products were subjected to electrophoresis using 1.5% agarose gel for analysis.

HMC-1 cells = test: Cytotoxicity (MTT-assay) in HMC-1 cells; assay type: cell-based, human
Description: as §1
[…] After culturing, the medium was replaced by a fresh medium, 5 mg/ml of an MTT solution was then added thereto, and the mast cells were incubated at 37° C. for 4 hours. 250 DMSO was added to the mast cells, MTT formazan was extracted therefrom, and absorbance of each well was measured at 540 nm using an ELISA reader.

Cl.N=C(N)NC(=N)Nc1ccc(Cl)cc1 [IPS-07001]
TSLP production ([1]; HMC-1 cells, concentration of 0.011 μM (so in the source), non-cytotoxic): significantly regulated
TSLP secretion from mast cells ([1]; PMACI-stimulated HMC-1 cells, ELISA): significantly inhibited
IL-6 protein expression (antibody chip, INR) [2]: decrease
IL-22 protein expression (antibody chip, INR) [2]: decrease
IL-33 protein expression (antibody chip, INR) [2]: decrease
caspase-1 activity in HMC-1 cells (caspase-1): significantly inhibited
recombinant caspase-1 activity [3]: significantly inhibited
production and mRNA expression of various inflammatory cytokines (inflammatory cytokines): significantly inhibited
cytotoxicity (MTT-assay) (HMC-1 cells; 10 μM): exhibited cytotoxicity
cytotoxicity (MTT-assay) (HMC-1 cells; up to 1 μM): no cytotoxicity
